What was measured:
[1] = test system: Capitate peg neuron A (cpA), a carbon dioxide sensor that does not contain Orco; experiment: Single sensillum recordings (SSRs), maxillary palp capitate peg neuron A; format: in vivo, Anopheles gambiae; settings: cpA is the negative control; for Huffing cpA: Huffing: airstream in combination with heat (propane or butane torch); for Puffing cpA: Puffing: airstream only for compound delivery
Method: (§1) Single sensillum recordings (SSRs) were performed on single capitate peg (cp) sensillum along the maxillary palps that house three types of olfactory receptor neurons (ORNs). 5- to 7-d-old non-blood fed female Anopheles gambiae that were maintained on 10% sucrose at 12h/12h light/dark cycle were used. Mosquitoes were immobilized by chilling at -20° C. for 1 min before removing wings and legs and then fixing on a glass coverslip covered with double-sided sticky tape. Maxillary palps were extended and held onto the double-sided sticky tape with a piece of hair brush thread. Chloridized silver wires in drawn-out glass capillaries were filled with 0.1% KCl and used as reference and recording electrodes. The reference electrode was placed in the eye, and recording electrode was brought into contact with the sensillum under the microscope (Olympus BX51WI; 800× magnification) by use of a Piezo-Patch micromaniputor (PPM5000; World Precision Instruments). The signals were digitized by the IDAC4 interface box (Syntech, Hilversum, The Netherlands) and offline analysis carried out by using analyzed with AutoSpike v. 3.2 software (Syntech). The extracellular activity of individual capitate peg sensillum ORNs are physiologically distinct and can be characterized into cpA (large), cpB (medium), and cpC (small) based on their spike amplitudes and shape. Responses were quantified by subtracting the number of spikes 1 s before odor stimulation from the number of spikes 1 s after the onset of odor stimulation from individual preparations. […] A 25 μL (VUAA1) or 25 μL aliquot (VUAnt) was then applied to a filter paper strip and placed inside a glass Pasteur pipette. The compound was then delivered by heating the pipette by a propane or butane torch right at the place of treatment for approximately 1 seconds. The compound was then delivered by puffing the odor cartridges with a controlled 0.5-s stimulus of air (5 mL/s) into a humidified airstream (10 mL/s), which was passed over the sensillum. Alternatively, 2-5 mgs of solid compound were measured into a glass Pasteur pipette. The glass pipette was then exposed to heat from a micro propane or butane torch for approximately 5 to 10 seconds. The compound was then delivered by puffing the odor cartridges with a controlled 0.5-s stimulus of air (5 mL/s) into a humidified airstream (10 mL/s), which was passed over the sensillum. Each compound was subjected to in vivo single […] recordings (SSRs) from the maxillary palp of An. gambiae. Puffing refers to use of an airstream only for compound delivery. Huffing refers to the use of an airstream in combination with heat. Specifically, huffing involved direct combustion of the solid compound via propane or butane torch. […] Capitate peg neurons B/C (cpB/C) are neurons known to contain Orco. Carbon dioxide activates only cpA, while 1-octen-3-ol is a known activator of cpB/C.

[2] = test system: Capitate peg neurons B/C (cpB/C), neurons known to contain Orco; experiment: Single sensillum recordings (SSRs), maxillary palp capitate peg neurons B/C; format: in vivo, Anopheles gambiae; settings: for Huffing cpB/C: Huffing: airstream in combination with heat (propane or butane torch); for Puffing cpB/C: Puffing: airstream only for compound delivery
Method: as §1

[3] = test system: odorant receptor neuronal cells expressing Orco; experiment: Currents in odorant receptor neuronal cells expressing Orco; format: cell-based, Drosophila melanogaster; settings: thermally volatized compound; FIG. 3

| Compound | Huffing cpA [1] | Puffing cpA [1] | Huffing cpB/C [2] | Puffing cpB/C [2] | currents induced in odorant receptor neuronal cells expressing Orco [3] |
| --- | --- | --- | --- | --- | --- |
| CCn1c(SCC(=O)Nc2ccc(C)cc2)nnc1-c1cccnc1 [Compound 1] | − (− = <10 spikes/s) | − (− = <10 spikes/s) | +++ (+++ = >40 spikes/s) | − (− = <10 spikes/s) |  |
| CCn1c(SCC(=O)N2c3ccccc3Sc3ccccc32)nnc1-c1ccco1 [Compound 4, 2-[[4-ethyl-5-(2-furanyul)-4H-1,2,4-triazol-3-yl]thio]-1-(10OH-phenothiazin-10-yl)-ethanone] | + (+ = 10-20 spikes/s) | − (− = <10 spikes/s) | + (+ = 10-20 spikes/s) | − (− = <10 spikes/s) |  |
| CCc1ccc(NC(=O)CSc2nnc(-c3cccnc3)n2CC)cc1 [Compound 2] | − (− = <10 spikes/s) | − (− = <10 spikes/s) | + (+ = 10-20 spikes/s) | − (− = <10 spikes/s) | currents induced |
| C=CC(O)CCCCC (centres unmarked) [Compound 1-octen-3-ol, 1-octen-3-ol, reference compound] |  | − (− = <10 spikes/s) |  | +++ (+++ = >40 spikes/s) |  |
| O=C=O [CO2, carbon dioxide, reference compound] |  | +++ (+++ = >40 spikes/s) |  | − (− = <10 spikes/s) |  |
